Key:
[1] = molecular target: T1, hM3 receptor (Homo sapiens, UniProt P20309); test: Blockade of agonist-mediated calcium release via FLIPR assay; type: cell-based; details: CHO cells stably expressing the hM3 receptor, oxotremorine at EC90
T1 construct: expressed in transfected cells; host or cells: CHO cells
Excerpt: C. Blockade of Agonist-Mediated Calcium Release via FLIPR Assays
Muscarinic receptor subtypes (M1, M3 and M5 receptors), which couple to Gq proteins, activate the phospholipase C (PLC) pathway upon agonist binding to the receptor. As a result, activated PLC hydrolyzes phosphatyl inositol diphosphate (PIP2) to diacylglycerol (DAG) and phosphatidyl-1,4,5-triphosphate (IP3), which in turn generates calcium release from intracellular stores, i.e., endoplasmic and sarcoplasmic reticulum. […] This fluorescence event is measured in real time by the FLIPR, which detects the change in fluorescence from a monolayer of cells cloned with human M1 and M3, and chimpanzee M5 receptors. Antagonist potency can be determined by the ability of antagonists to inhibit agonist-mediated increases in intracellular calcium. […]
To determine antagonist potency, the dose-dependent stimulation of intracellular Ca^2+ release for oxotremorine is first determined so that antagonist potency can later be measured against oxotremorine stimulation at an EC90 concentration. […]
The parameters used for the FLIPR are: exposure length of 0.4 seconds, laser strength of 0.5 watts, excitation wavelength of 488 nm, and emission wavelength of 550 nm. Baseline is determined by measuring the change in fluorescence for 10 seconds prior to addition of agonist. […]

[2] = tested on: ACh-induced bronchoconstriction; test: Duration of bronchoprotection in guinea pig model of acetylcholine-induced bronchoconstriction; type: in vivo; details: inhalation, 1.5 hours post-dose
Protocol: Determination of Duration of Bronchoprotection in Guinea Pig Model of Acetylcholine-Induced Bronchoconstriction
Groups of six male guinea pigs (Duncan-Hartley (HsdPoc:DH) Harlan, Madison, WI) weighing between 250 and 350 g were individually identified by cage cards. Throughout the study animals were allowed access to food and water ad libitum.
Test compounds were administered via inhalation over 10 minutes in a whole-body exposure dosing chamber (R&S Molds, San Carlos, CA). The dosing chambers were arranged so that an aerosol was simultaneously delivered to 6 individual chambers from a central manifold. Guinea pigs were exposed to an aerosol of a test compound or vehicle (WFI). […] This was measured gravimetrically by comparing pre- and post-nebulization weights of the filled nebulizer.
The bronchoprotective effects of test compounds administered via inhalation were evaluated using whole body plethysmography at 1.5, 24, 48 and 72 hours post-dose.
Forty-five minutes prior to the start of the pulmonary evaluation, each guinea pig was anesthetized with an intramuscular injection of ketamine (43.75 mg/kg), xylazine (3.50 mg/kg) and acepromazine (1.05 mg/kg). […] The depth of anesthesia was monitored and adjusted if the animal responded to pinching of its paw or if the respiration rate was greater than 100 breaths/minute. […]

T1 sequence (P20309 whole entry): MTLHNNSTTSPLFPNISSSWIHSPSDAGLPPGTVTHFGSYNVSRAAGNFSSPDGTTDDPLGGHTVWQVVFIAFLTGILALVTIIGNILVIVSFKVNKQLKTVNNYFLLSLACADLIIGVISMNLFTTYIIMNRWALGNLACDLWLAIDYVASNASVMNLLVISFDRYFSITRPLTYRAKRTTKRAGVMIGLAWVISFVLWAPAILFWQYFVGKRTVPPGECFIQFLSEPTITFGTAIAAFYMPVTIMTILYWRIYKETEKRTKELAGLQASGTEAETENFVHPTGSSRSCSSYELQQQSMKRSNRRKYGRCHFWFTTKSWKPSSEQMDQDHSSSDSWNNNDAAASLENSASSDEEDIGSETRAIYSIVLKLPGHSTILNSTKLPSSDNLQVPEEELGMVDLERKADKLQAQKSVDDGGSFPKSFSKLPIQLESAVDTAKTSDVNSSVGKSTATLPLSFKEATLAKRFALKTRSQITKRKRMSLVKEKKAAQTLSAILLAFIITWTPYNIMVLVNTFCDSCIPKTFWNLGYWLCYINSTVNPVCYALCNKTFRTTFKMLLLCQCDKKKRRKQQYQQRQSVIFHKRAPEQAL

CN(CCN1CCC(OC(=O)Nc2ccccc2-c2ccccc2)CC1)C(=O)c1ccc(CN2CCC(C(N)=O)CC2)cc1 [Example 1, Biphenyl-2-ylcarbamic Acid 1-(2-{[4-(4-Carbamoylpiperidin-1-ylmethyl)benzoyl]methylamino}ethyl)piperidin-4-yl Ester]
Ki [1]: < 5 nM
PD2(50) for ACh-induced bronchoconstriction [2]: less than 200 μg/mL
